# Experimental data published in patent EP4361137A1, “PRUNE1 INHIBITORS AND THERAPEUTIC USE THEREOF” (CEINGE Biotecnologie Avanzate Franco Salvatore s.c. a r.l., priority 2022, dated 2024).
# Legend:
# MMTV-Prune1/Wnt1 cells = assay: Real-time cell migration analysis (cell index); type: cell-based, murine; conditions: 10 µM and 100 µM, dose dependent
# human PRUNE1 [1] = assay: qPCR of PRUNE1 mRNA in D425-MED cells; type: cell-based; conditions: 10 µM, 24 hours, relative to vehicle (2^-ΔΔCt)
# Description: D425.MED and MMTV-Prune1/Wnt1 cells were plated and treated with increasing concentrations of LEO-AA7.5(S)T for 24 hours. Water-treated cells were used as negative control for the experiments.
# RNA samples were extracted using TRIzol RNA Isolation Reagent (15596026, Invitrogen), according to the manufacturer instructions. Reverse transcription was performed with 5× All-In-One RT MasterMix (g592; ABM), according to the manufacturer instructions. The reverse transcription products (cDNA) were amplified by qRT-PCR using an RT-PCR system (7900; Applied Biosystems, Foster City, CA, USA). The cDNA preparation was through the cycling method, by incubating the complete reaction mix as follows: cDNA reactions: (37 °C for 10 min and 60 °C for 15 min); Heat-inactivation: 95 °C for 3 min; Hold stage: 4 °C. The targets were detected with the SYBR green approach, using BrightGreen BlasTaq 2× PCR MasterMix (G895; ABM). Human ACTB was used as the housekeeping gene to normalize the quantification cycle (Cq) values of the other genes. […] Relative expression of the target genes was determined using the 2^-ΔΔCq method, as the fold increase compared with the controls. […]
# human PRUNE1 [2] = assay: qPCR of PRUNE1 mRNA in MATH1-Prune1/TP53-/- cells; type: cell-based; conditions: 10 µM, 24 hours, relative to vehicle
# Description: (§1) RNA samples were extracted using TRIzol RNA Isolation Reagent (15596026, Invitrogen), according to the manufacturer instructions. Reverse transcription was performed with 5× All-In-One RT MasterMix (g592; ABM), according to the manufacturer instructions. The reverse transcription products (cDNA) were amplified by qRT-PCR using an RT-PCR system (7900; Applied Biosystems, Foster City, CA, USA). The cDNA preparation was through the cycling method, by incubating the complete reaction mix as follows: cDNA reactions: (37 °C for 10 min and 60 °C for 15 min); Heat-inactivation: 95 °C for 3 min; Hold stage: 4 °C. The targets were detected with the SYBR green approach, using BrightGreen BlasTaq 2× PCR MasterMix (G895; ABM). Human ACTB was used as the housekeeping gene to normalize the quantification cycle (Cq) values of the other genes. These runs were performed on a PCR machine (Quantstudio5, Lifetechnologies) with the following thermal protocol: Hold stage: 50 °C for 2 min; Denaturation Step: 95 °C for 10 min; Denaturation and annealing (×45 cycles): 95 °C for 15 s and 60 °C for 60 s; Melt curve stage: 95 °C for 15 s, 60 °C for 1 min, and 95 °C for 15 s. Relative expression of the target genes was determined using the 2^-ΔΔCq method, as the fold increase compared with the controls. The data are presented as means ±SD of the 2^-ΔΔCq values (normalized to human ACTB) of three replicates.
# murine PRUNE1 = assay: qPCR of PRUNE1 mRNA in MATH1-Prune1/TP53-/- cells; type: cell-based; conditions: 10 µM, 24 hours, relative to vehicle
# Description: as §1
# human and murine Prune1 = assay: Immunoblotting of MATH1-Prune1/TP53-/- cells; type: cell-based; conditions: 10 µM, 24 hours
# Description: Cells for immunoblotting analysis were washed in cold PBS and lysed in cell lysis buffer [20 mM sodium phosphate (pH 7.4), 150 mM NaCl, 10% (v/v) glycerol, 1% (w/v) sodium deoxycholate, 1% (v/v) Triton X-100] supplemented with protease inhibitors (Roche). The resulting cell lysates were cleared by centrifugation at 16,200g for 10 min at room temperature, and the supernatants were re- moved and assayed for protein concentrations with the Protein Assay Dye Reagent (Bio-Rad). The cell lysates (30 µg) were resolved by SDS-polyacrylamide gel electrophoresis (SDS-PAGE) gels of different percentages, which depended on the molecular weights of the proteins of interest. The proteins were then electrophoretically transferred to polyvinylidene difluoride (PVDF) membranes (Millipore). After 1 hour in blocking solution with 5% (w/v) dry milk fat in PBS or 5% (w/v) BSA (Sigma-Aldrich) in tris-buffered saline [both of which contained 0.02% (v/v) Tween 20] (TBS-Tween), the PVDF mem- branes were incubated with the required primary antibody overnight at 4°C: anti-PRUNE1 (1:250; Ferrucci et al., 2018), or anti- β-actin (1:10,000; A5441, Sigma-Aldrich). […] The peak areas of the bands were measured on the densitometry plots, and the relative proportions (percentages) were calculated. […]
# CCL2 = assay: ELISA of CCL2 in sera of implanted mice; type: in vivo, FVB WT mice; conditions: 6 mg/kg/day intraperitoneally for seven days; n.5 per group
# Description: ELISA assay ([…]) was performed by following the manufacturer instruction, to measure the levels of CCL2 cytokine in the sera from immunocompetent syngeneic mice orthotopically implanted with MATH1-Prune1/ TP53-/- cells and treated intraperitoneally for seven days with LEO-AA7.5(S)T (n.5) at 6 mg/kg/day, or with water (n.5) as the vehicle control group.
# [3] = tested on: inflammatory cytokines targeted by IMIDs drugs; assay: qPCR of inflammatory cytokines in MATH1-Prune1/TP53-/- cells; type: cell-based, murine; conditions: 10 µM, 24 hours
# Description: as §1
# [4] = tested on: MATH1-Prune1/TP53-/- cells; assay: Mouse cytokine antibody array on conditioned media; type: cell-based, murine; conditions: 10 µM, 24 hours; n.61 cytokines measured
# Description: The conditioned media collected from three different vehicle- or 10 µM LEO-AA7.5(S)T-treated MATH1-Prune1/TP53-/- cells after 24 hours were pooled. The relative levels of cytokines in the pooled conditioned media and murine sera were measured (RayBio C-Series Mouse Cytokine Antibody Array C3 [AAM-CYT-3-2]), according to the manufacturer protocol. Densitometric analysis was carried out using the Quantity One software (BioRad). Expression levels were normalized to the levels of the positive control spots (contained within the membrane). For each cytokine, the mean ±standard error was determined.
# J774A.1 macrophages = assay: M2-polarization of macrophages grown in conditioned media (qPCR); type: cell-based, murine; conditions: macrophages 48 h in conditioned media of MMTV-Prune1-Wnt1 cells treated with 10 µM
# Description: The effects of MMTV-Prune-1/Wnt1 cells upon treatment with LEO-AA7.5(S)T were analyzed for M2-polarization of J774A. 1 murine macrophages. Briefly 1 ×10^6 MMTV-Prune-1/Wnt1 cells were resuspended in 10 mL complete DMEM medium, plated into 10-cm-diameter plates, treated with 10 µM LEO-AA7.5(S)T or water as vehicle control, and grown at 37 °C for 24 h. Then the conditioned media were collected. One day before culture in the conditioned media, J774A.1 macrophages were plated into 10-cm-diameter plates. At the time of the culturing in conditioned media, macrophages were at 50% confluence, and after 6 h of starvation in serum-free medium, the macrophages were grown in conditioned media for 48 h. Each experimental point was carried out in triplicate. After the culturing in the conditioned media, the macrophages were washed with PBS, collected, and used for RNA extraction.
# RNA samples were extracted using TRIzol RNA Isolation Reagent (15596026, Invitrogen), according to the manufacturer instructions. […] The targets were detected with the SYBR green approach, using BrightGreen BlasTaq 2× PCR MasterMix (G895; ABM). Human ACTB was used as the housekeeping gene to normalize the quantification cycle (Cq) values of the other genes. […] Relative expression of the target genes was determined using the 2^-ΔΔCq method, as the fold increase compared with the controls. […]
structure (smiles),measurement,setting,value
"COc1ccc(CNc2ncnc(N3CCC[C@H](CO)C3)n2)cc1.Cl [LEO-AA7.5(S)T, (S)-(1-(4-((4-methoxybenzyl)amino)-1,3,5-triazin-2-yl)piperidin-3-yl)methanol HCl salt]",migration rate,MMTV-Prune1/Wnt1 cells,reduction
same,endogenous Prune1 mRNA,human PRUNE1 [1],0.3 fold
same,human endogenous Prune1 mRNA,human PRUNE1 [2],0.15 fold
same,murine endogenous Prune1 mRNA,murine PRUNE1,0.4 fold
same,human and murine Prune1 levels (immunoblotting),human and murine Prune1,reduced human and murine Prune1 levels
same,nuclear phosphorylated SMAD2 and OTX2 (immunoblotting),human and murine Prune1,inhibition
same,sera circulating CCL2,CCL2,decreased levels
same,levels of inflammatory cytokines targeted by IMIDs drugs (qPCR),[3],decreased levels
same,number of cytokines/ chemokines significantly downregulated in the conditioned media,[4],10
same,levels of M2-polarized marker genes in macrophages,J774A.1 macrophages,decreased levels
